Measured values taken from the supplement of paper PMC11208160.

Assay: recombinant barcode read abundance after kanamycin selection (control-corrected) (log10(CPM+1)); higher = more efficient recombination; sequences stand for … in AGTGCAGAGAAAATCGGCCAGTTTTCTCTGCCTGCAGTCCGCATGCCGT…AGATTTATGCAGCGGACTGCCTTTCTCCCAAAGTGATAAACCGGACAGTATCATGGACCGGTTTTCCCGGTAATCCGTATTTGCAAGGTTGGTTTCACT; site = the 11-nt target
Summary of the method: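 Recombination efficiency comes from barcode counts at recombinant junctions, converted to counts per million, averaged and corrected against the control. Values appear as log10(CPM+1). They were obtained from a pooled E. coli screen in which each oligo paired a target with an IS621 bridge RNA target-binding loop, and cells were plated in duplicate on chloramphenicol/ampicillin LB agar or on chloramphenicol/ampicillin/kanamycin with 0.1 mM IPTG.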
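Also: IS621 recombinase and bridge RNA in Escherichia coli cells.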

Sequence | recombinant barcode read abundance (log10)
ATCCTACCTTGGGTTCTAACCTGTTGCTT (site ATCCTACCTAA) | 1.72
ATCCTACCTTGGGTTCTAACCTGTTGCTT (site ATCGTACCTCA) | 0.113
ATCGAGTCTTGGGTTCTAACCTGTTGCCA (site ATCGAGTCTTG) | 0.276
ATCGAGTCTTGGGTTCTAACCTGTTGCCA (site CAAATCCCTAC) | 0.112
ATCGGAACTTGGGTTCTAACCTGTTGCCT (site ATCGGAACTAG) | 1.01
ATCGGAACTTGGGTTCTAACCTGTTGCCT (site ATCGGACCTAG) | 0.0301
ATCGGAACTTGGGTTCTAACCTGTTGCCT (site ATCGGAGCTAG) | 0.13
ATCGGAACTTGGGTTCTAACCTGTTGCCT (site ATCGGATCTAG) | 0.209
ATCGGACCTTGGGTTCTAACCTGTTGCTG (site ATCGGACCTCA) | 0.901
ATCGGACCTTGGGTTCTAACCTGTTGCTG (site TATAATGCTAC) | 0.148
ATCGGAGCTTGGGTTCTAACCTGTTGCAG (site ATCGGAGCTCA) | 0.504
ATCGGAGCTTGGGTTCTAACCTGTTGCAG (site ATCGGAGCTCC) | 0.166
ATCGGAGCTTGGGTTCTAACCTGTTGCAG (site ATCGGAGCTCG) | 0.294
ATCGGAGCTTGGGTTCTAACCTGTTGCAG (site ATCGGAGCTCT) | 0.953
ATCGGAGCTTGGGTTCTAACCTGTTGCCG (site ATCGGAGCTCA) | 0.165
ATCGGAGCTTGGGTTCTAACCTGTTGCCG (site ATCGGAGCTCC) | 0.0715
ATCGGAGCTTGGGTTCTAACCTGTTGCCG (site ATCGGAGCTCG) | 0.497
ATCGGAGCTTGGGTTCTAACCTGTTGCCG (site ATCGGAGCTCT) | 0.123
ATCGGTCCTTGGGTTCTAACCTGTTGCCT (site ATAGGTCCTAG) | 0.476
ATCGGTCCTTGGGTTCTAACCTGTTGCCT (site ATCGGTCCTAG) | 1.29
ATCGGTCCTTGGGTTCTAACCTGTTGCCT (site ATGGGTCCTAG) | 0.0682
ATCGGTCCTTGGGTTCTAACCTGTTGCCT (site ATTGGTCCTAG) | 0.174

Sequence | recombinant barcode read abundance (log10)
ATCGTACCTTGGGTTCTAACCTGTTGCTA (site ATCGTACCTTA) | 0.0937
ATCGTACCTTGGGTTCTAACCTGTTGCTA (site CAAAAGGCTAG) | 0.973
ATCGTTGCTTGGGTTCTAACCTGTTGCCT (site ATCGTTGCTAG) | 0.657
ATCGTTGCTTGGGTTCTAACCTGTTGCCT (site CTCGTTGCTAG) | 0.0176
ATCGTTGCTTGGGTTCTAACCTGTTGCCT (site GTCGTTGCTAG) | 0.0617
ATCGTTGCTTGGGTTCTAACCTGTTGCCT (site TTCGTTGCTAG) | 0.0404
ATCTAGGCTTGGGTTCTAACCTGTTGCCG (site ATCTAGGCTCG) | 0.0337
ATCTAGGCTTGGGTTCTAACCTGTTGCCG (site CATAGATCTAT) | 0.099
ATCTGGGCTTGGGTTCTAACCTGTTGCCT (site AACTGGGCTAG) | 0.339
ATCTGGGCTTGGGTTCTAACCTGTTGCCT (site ACCTGGGCTAG) | 0.0625
ATCTGGGCTTGGGTTCTAACCTGTTGCCT (site AGCTGGGCTAG) | 0.123
ATCTGGGCTTGGGTTCTAACCTGTTGCCT (site ATCTGGGCTAG) | 0.0992
ATCTTAACTTGGGTTCTAACCTGTTGCCT (site ATCTTAACTAG) | 0.183
ATCTTAACTTGGGTTCTAACCTGTTGCCT (site ATCTTACCTAG) | 0.643
ATCTTAACTTGGGTTCTAACCTGTTGCCT (site ATCTTAGCTAG) | 0.337
ATCTTAACTTGGGTTCTAACCTGTTGCCT (site ATCTTATCTAG) | 0.00981
ATCTTGTCTTGGGTTCTAACCTGTTGCCT (site ATCTTGTCTAG) | 0.977
ATCTTGTCTTGGGTTCTAACCTGTTGCCT (site ATCTTGTCTCG) | 0.0162
ATGAAGACTTGGGTTCTAACCTGTTGCCT (site ATAAAGACTAG) | 2.09
ATGAAGACTTGGGTTCTAACCTGTTGCCT (site ATCAAGACTAG) | 1.07
ATGAAGACTTGGGTTCTAACCTGTTGCCT (site ATGAAGACTAG) | 2.13
ATGAAGACTTGGGTTCTAACCTGTTGCCT (site ATTAAGACTAG) | 1.12

Sequence | recombinant barcode read abundance (log10)
ATGACCGCTTGGGTTCTAACCTGTTGCCA (site AGGACCACTTG) | 0.246
ATGACCGCTTGGGTTCTAACCTGTTGCCA (site ATGACCGCTTG) | 1.28
ATGACTACTTGGGTTCTAACCTGTTGCTA (site ATGACTACTGA) | 0.136
ATGACTACTTGGGTTCTAACCTGTTGCTA (site ATGACTACTTA) | 0.456
ATGAGAACTTGGGTTCTAACCTGTTGCCT (site ATGAGAACTAG) | 1.5
ATGAGAACTTGGGTTCTAACCTGTTGCCT (site ATGAGAACTCG) | 0.361
ATGATTCCTTGGGTTCTAACCTGTTGCCT (site AAGATTCCTAG) | 0
ATGATTCCTTGGGTTCTAACCTGTTGCCT (site ACGATTCCTAG) | 0.0545
ATGATTCCTTGGGTTCTAACCTGTTGCCT (site AGGATTCCTAG) | 0.0244
ATGATTCCTTGGGTTCTAACCTGTTGCCT (site ATGATTCCTAG) | 0.62
ATGATTGCTTGGGTTCTAACCTGTTGCCT (site ATGAATGCTAG) | 0.149
ATGATTGCTTGGGTTCTAACCTGTTGCCT (site ATGATTGCTAG) | 1.18
ATGCCCACTTGGGTTCTAACCTGTTGCCT (site ATGCCAACTAG) | 0.0683
ATGCCCACTTGGGTTCTAACCTGTTGCCT (site ATGCCCACTAG) | 1.33
ATGCCCACTTGGGTTCTAACCTGTTGCCT (site ATGCCGACTAG) | 0.049
ATGCCCACTTGGGTTCTAACCTGTTGCCT (site ATGCCTACTAG) | 0.106
ATGCGAGCTTGGGTTCTAACCTGTTGCAG (site ATGCGAGCTCA) | 0.791
ATGCGAGCTTGGGTTCTAACCTGTTGCAG (site ATGCGAGCTCC) | 0.0805
ATGCGAGCTTGGGTTCTAACCTGTTGCAG (site ATGCGAGCTCG) | 0.549
ATGCGAGCTTGGGTTCTAACCTGTTGCAG (site ATGCGAGCTCT) | 1.87
ATGGACCCTTGGGTTCTAACCTGTTGCTC (site ATGGACCCTGA) | 1.93
ATGGACCCTTGGGTTCTAACCTGTTGCTC (site TATCGGGCTCT) | 0.0488

Sequence | recombinant barcode read abundance (log10)
ATGGATACTTGGGTTCTAACCTGTTGCGT (site AGGGATACTAC) | 0.219
ATGGATACTTGGGTTCTAACCTGTTGCGT (site ATGGATACTAC) | 2.51
ATGGCGGCTTGGGTTCTAACCTGTTGCCT (site ATGGCGGCTAG) | 1.69
ATGGCGGCTTGGGTTCTAACCTGTTGCCT (site GTGGAGGCTAG) | 0.0374
ATGGGCACTTGGGTTCTAACCTGTTGCCT (site ATAGGAACTAG) | 0.198
ATGGGCACTTGGGTTCTAACCTGTTGCCT (site ATGGGCACTAG) | 0.639
ATGGGCCCTTGGGTTCTAACCTGTTGCTC (site ATGGGCCCTAA) | 1.36
ATGGGCCCTTGGGTTCTAACCTGTTGCTC (site ATGGGCCCTCA) | 1.04
ATGGGCCCTTGGGTTCTAACCTGTTGCTC (site ATGGGCCCTGA) | 2.09
ATGGGCCCTTGGGTTCTAACCTGTTGCTC (site ATGGGCCCTTA) | 0.0312
ATGGGTCCTTGGGTTCTAACCTGTTGCCT (site ATAGGTCCTAG) | 2.07
ATGGGTCCTTGGGTTCTAACCTGTTGCCT (site ATCGGTCCTAG) | 0.0834
ATGGGTCCTTGGGTTCTAACCTGTTGCCT (site ATGGGTCCTAG) | 2.55
ATGGGTCCTTGGGTTCTAACCTGTTGCCT (site ATTGGTCCTAG) | 0.356
ATGGTCCCTTGGGTTCTAACCTGTTGCCT (site ATAGTCCCTAG) | 3.2
ATGGTCCCTTGGGTTCTAACCTGTTGCCT (site ATGGTCCCTAG) | 3.16
ATGGTGGCTTGGGTTCTAACCTGTTGCCT (site ATGGTGACTAG) | 1.17
ATGGTGGCTTGGGTTCTAACCTGTTGCCT (site ATGGTGCCTAG) | 0.288
ATGGTGGCTTGGGTTCTAACCTGTTGCCT (site ATGGTGGCTAG) | 1.81
ATGGTGGCTTGGGTTCTAACCTGTTGCCT (site ATGGTGTCTAG) | 0.241
